“Also recorded” adds a separate entry of the source.
Columns and labels:
[1] = tested on: GnRH-R expressing neurons of Gnrhr::Cre mice injected with hM4D(Gi) DREADD viral vector; details: mouse, in vivo, 3 mg/kg
[2] = tested on: GnRH-R expressing neurons of Gnrhr::Cre mice injected with hM4D(Gi) DREADD viral vector; details: mouse, in vivo, 3 mg/kg; remark: listed apart in the source
wild-type mice [3] = details: mouse, in vivo
Method: Habituation/dishabituation test. The habituation/dishabituation test was used to assess the ability to differentiate between different odours (Breton-Provencher et al., 2009). Mice were single-housed for 8 days prior to testing. This olfactory test included a presentation of acetophenone (00790, Sigma) for habituation and octantal (05608, Sigma) for dishabituation, or vice versa. Before the test, mice were allowed to explore the open-field area and an empty odour box for 30 min. After this habituation period, mice were sequentially presented with one odour for four consecutive trials for a duration of 1 min, and an inter-trial interval of 10 min was maintained to ensure the replacement of the odour. After four consecutive trials, a second odour was presented during a 1 min trial. Odours (20 μl of 1:1000 dilution) were administered on a filter paper and placed in a perforated plastic box to avoid direct contact with the odour stimulus. The measurement consisted of recording the total amount of time the mouse spent sniffing the object during different trials.

wild-type mice [4] = details: mouse, in vivo; remark: listed apart in the source
Method: Novel object recognition test. Recognition memory was assessed using the novel object recognition test (Leger et al., 2013). Mice were single-housed for 5 days prior to testing. On day 1, two identical objects (A+A) were placed within the open-field arena on opposite sides of the cage, equidistant from the cage walls. Each mouse was placed within the two objects and allowed to explore them for 15 min. Day 2 consisted of two phases, a familiarization and a test phase. During the familiarization phase (trial 1) that lasted 15 min, mice explored two other identical objects (B+B). After this phase, mice were placed back in its home cage for 1 hour before starting the test phase. During the test phase, one object from trial 1 and a completely new object (B+C) were placed within the open-field area and mice were allowed to explore them for 5 min (trial 2). The object recognition score was calculated as the time spent exploring the new object (trial 2) over the total exploration time, and is used to represent recognition memory function. […]

wild-type mice [5] = test: LH pulsatility by serial tail blood sampling and LH ELISA; type: in vivo, mouse; details: continuous subcutaneous infusion by osmotic pump, 15 days
Method: LH assays: LH levels were determined by the previously described sensitive LH sandwich ELISA (Steyn et al., 2013). A 96-well high-affinity binding microplate (Corning) was coated with 50 μL of capture antibody (monoclonal antibody, anti-bovine LHβ subunit, 518B7; L. Sibley; University of California, UC Davis) at a final dilution of 1:1,000 (in 0.1M Na2CO3/NaHCO3, pH 9.6) and incubated overnight at 4° C. Wells were incubated with 200 μL blocking buffer (5% (w/v) skimmed milk powder in 1×PBS-T pH 7.4 (0.1 M PBS, 0.05% Tween 20 (Sigma #P9416)) for 2 hours at room temperature (RT). A standard curve was generated using a twofold serial dilution of mouse LH (reference preparation, AFP-5306A; National Institute of Diabetes and Digestive and Kidney Diseases National Hormone and Pituitary Program (NIDDK-NHPP)) in 1% (w/v) BSA (Sigma, A9418) in 1×PBS-T. The LH standards and blood samples were incubated with 50 μL of detection antibody (rabbit LH antiserum, AFP240580Rb; NIDDK-NHPP) at a final dilution of 1:10,000 for 1.5 hours at RT. […] The reaction was stopped by the addition of 50 μL of 3M HCl to each well, and the absorbance was measured at 450 nm.
Adult mice were habituated with daily handling. […] LH levels were then determined using the protocol described before. […]

Compound	olfactory performance (ability to discriminate between different odors) [1]	cognitive performance [2]	olfactory performance (wild-type mice [3])	cognitive performance (wild-type mice [4])	LH pulsatility (pulse frequency and amplitude) (wild-type mice [5])
C[N+]1([O-])CCN(C2=Nc3cc(Cl)ccc3Nc3ccccc32)CC1 [CNO, clozapine-n-oxide]	dramatically reduced; also recorded: impaired	dramatically reduced; also recorded: impaired	–	–	–
LUTRELEF®: a GnRH peptide of clinic use to restore fertility in patients with hypogonadotropic hypogonadism; GnRH acetate/diacetate (gonadorelin), Ferring Pharmaceuticals	–	–	marked deleterious effects	marked deleterious effects	prevented; also recorded: blunted LH pulsatility

Reference: US20220202895A1, “PULSATIVE GNRH ADMINISTRATION FOR TREATING COGNITIVE DISORDERS” (INSERM (Institut National de la Santé et de la Recherche …, priority 2019, published 2022)
